In ChEMBL document CHEMBL5653631, “A Potent and Selective ULK1 Inhibitor Suppresses Autophagy and Sensitizes Cancer Cells to Nutrient Stress” (iScience, 2018):
One block for each compound: values may come before it.

Assays:
[1] = molecular target: T1, Cytoplasmic tyrosine-protein kinase BMX (Homo sapiens) (UniProt P51813); experiment: Inhibition of human recombinant BMX at 500 nM related to control ULK1
T1 sequence (whole entry): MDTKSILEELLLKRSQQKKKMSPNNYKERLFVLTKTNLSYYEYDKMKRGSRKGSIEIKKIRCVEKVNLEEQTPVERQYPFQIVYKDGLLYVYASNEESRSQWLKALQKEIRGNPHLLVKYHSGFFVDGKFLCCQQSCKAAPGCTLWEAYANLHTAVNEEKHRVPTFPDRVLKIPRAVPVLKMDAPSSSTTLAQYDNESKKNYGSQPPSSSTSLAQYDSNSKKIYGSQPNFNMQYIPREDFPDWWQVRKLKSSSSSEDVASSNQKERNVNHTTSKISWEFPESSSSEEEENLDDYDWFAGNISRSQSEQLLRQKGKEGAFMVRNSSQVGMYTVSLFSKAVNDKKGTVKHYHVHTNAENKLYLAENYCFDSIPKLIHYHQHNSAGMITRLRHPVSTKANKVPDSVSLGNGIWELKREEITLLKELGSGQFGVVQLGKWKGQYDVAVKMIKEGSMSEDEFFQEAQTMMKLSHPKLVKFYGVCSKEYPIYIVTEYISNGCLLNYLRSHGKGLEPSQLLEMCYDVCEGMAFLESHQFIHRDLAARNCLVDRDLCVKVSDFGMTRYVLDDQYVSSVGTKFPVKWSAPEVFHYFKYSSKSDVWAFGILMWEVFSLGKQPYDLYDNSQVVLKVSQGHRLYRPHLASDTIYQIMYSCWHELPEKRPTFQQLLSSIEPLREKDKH

[2] = molecular target: T2, Serine/threonine-protein kinase Nek9 (Homo sapiens) (UniProt Q8TD19); experiment: Inhibition of human recombinant NEK9 at 500 nM related to control ULK1
T2 sequence (whole entry): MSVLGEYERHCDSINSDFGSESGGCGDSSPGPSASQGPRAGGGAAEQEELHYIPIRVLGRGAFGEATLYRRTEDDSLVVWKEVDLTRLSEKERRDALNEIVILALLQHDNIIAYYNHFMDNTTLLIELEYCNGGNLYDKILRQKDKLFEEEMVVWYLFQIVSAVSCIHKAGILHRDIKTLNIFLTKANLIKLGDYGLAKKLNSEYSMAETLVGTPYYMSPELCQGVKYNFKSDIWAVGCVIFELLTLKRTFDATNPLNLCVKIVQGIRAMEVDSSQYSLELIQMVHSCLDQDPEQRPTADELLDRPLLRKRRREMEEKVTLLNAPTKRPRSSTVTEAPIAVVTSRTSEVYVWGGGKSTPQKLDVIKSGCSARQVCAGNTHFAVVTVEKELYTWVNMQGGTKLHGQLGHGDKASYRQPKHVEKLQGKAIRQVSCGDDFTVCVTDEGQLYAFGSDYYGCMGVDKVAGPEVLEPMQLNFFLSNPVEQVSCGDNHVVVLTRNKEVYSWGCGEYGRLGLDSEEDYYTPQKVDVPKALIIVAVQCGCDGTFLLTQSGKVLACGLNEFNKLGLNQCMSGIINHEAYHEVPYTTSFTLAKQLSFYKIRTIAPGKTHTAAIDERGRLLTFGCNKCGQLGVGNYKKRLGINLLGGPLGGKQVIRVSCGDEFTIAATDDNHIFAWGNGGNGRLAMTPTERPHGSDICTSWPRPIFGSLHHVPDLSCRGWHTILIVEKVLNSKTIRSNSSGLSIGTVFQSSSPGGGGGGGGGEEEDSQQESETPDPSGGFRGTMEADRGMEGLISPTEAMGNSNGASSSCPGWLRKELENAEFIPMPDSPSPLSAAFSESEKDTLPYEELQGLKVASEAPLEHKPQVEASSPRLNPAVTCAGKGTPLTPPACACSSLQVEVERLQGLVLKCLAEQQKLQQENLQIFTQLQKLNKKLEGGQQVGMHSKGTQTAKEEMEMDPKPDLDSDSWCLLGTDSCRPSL

[3] = molecular target: T3, Testis-specific serine/threonine-protein kinase 4 (Homo sapiens) (UniProt Q6SA08); experiment: Inhibition of human recombinant TSSK4 at 15 nM related to control ULK1
T3 sequence (whole entry): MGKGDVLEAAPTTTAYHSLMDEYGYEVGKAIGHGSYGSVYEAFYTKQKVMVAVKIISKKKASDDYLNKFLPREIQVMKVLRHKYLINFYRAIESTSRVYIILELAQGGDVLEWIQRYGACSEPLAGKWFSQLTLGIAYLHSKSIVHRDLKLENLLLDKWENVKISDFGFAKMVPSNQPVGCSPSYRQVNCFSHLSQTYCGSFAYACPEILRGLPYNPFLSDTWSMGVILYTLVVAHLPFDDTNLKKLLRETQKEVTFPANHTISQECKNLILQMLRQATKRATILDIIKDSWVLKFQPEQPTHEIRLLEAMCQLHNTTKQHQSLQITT

[4] = molecular target: T4, Mitogen-activated protein kinase kinase kinase 7 (Homo sapiens) (UniProt O43318); experiment: Inhibition of human recombinant TAK1 at 40 nM in presence of ATP by radiometric assay relative to control
T4 sequence (whole entry): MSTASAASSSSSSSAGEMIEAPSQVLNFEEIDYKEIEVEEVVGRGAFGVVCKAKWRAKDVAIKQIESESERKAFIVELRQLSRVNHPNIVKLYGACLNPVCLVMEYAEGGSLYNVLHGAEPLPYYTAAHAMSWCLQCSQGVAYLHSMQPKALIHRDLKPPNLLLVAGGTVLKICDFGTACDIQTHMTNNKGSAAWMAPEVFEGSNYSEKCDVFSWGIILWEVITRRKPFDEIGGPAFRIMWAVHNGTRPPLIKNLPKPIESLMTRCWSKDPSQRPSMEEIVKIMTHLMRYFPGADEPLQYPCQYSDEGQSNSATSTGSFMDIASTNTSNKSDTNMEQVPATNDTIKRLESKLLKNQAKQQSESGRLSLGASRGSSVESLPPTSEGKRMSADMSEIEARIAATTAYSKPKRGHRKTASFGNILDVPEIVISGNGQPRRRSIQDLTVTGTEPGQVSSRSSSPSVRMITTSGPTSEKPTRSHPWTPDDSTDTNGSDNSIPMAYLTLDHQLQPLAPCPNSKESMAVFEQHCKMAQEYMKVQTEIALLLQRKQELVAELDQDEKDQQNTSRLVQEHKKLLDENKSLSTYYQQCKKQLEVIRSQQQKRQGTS

fold change (FC) [1]: 0.22
SMILES: CNC(=O)c1ccccc1Oc1nc(Nc2cc(OC)c(OC)c(OC)c2)ncc1Br
fold change (FC) [2]: 0

fold change (FC) [3]: 0
SMILES: CC(C)[C@H](NC(=O)c1cc(-c2cnn3cc(-c4ccc(OCCN5CCCCC5)cc4)cnc23)cs1)C(F)(F)F

inhibition [4]: 0%
SMILES: O=C(N[C@@H](C1CC1)C(F)(F)F)c1cc(-c2cnn3cc(-c4ccc(F)cc4)cnc23)cs1
